The values that follow are results of earlier work, collected in patent publication US20220061318A1, “ANTIMICROBIAL PREVENTIVE NETTING” (University of Washington, priority 2020, published 2022).

The conditions of this data set: photosensitizer, singlet oxygen generation; riboflavin value depends on the test conditions.

Take `CN(C)c1ccc2nc3ccc(=[N+](C)C)cc-3sc2c1` [Methylene blue, methylene blue]: the quantum yield is 0.52. As to `O=C1OC2(c3ccccc31)c1cc(I)c(O)c(I)c1Oc1c2cc(I)c(O)c1I` [erythrosine], the quantum yield result is listed as “around 0.6”.
